Measured values from patent US20250368649A1, “TETRAHYDROPYRIDOPYRIMIDINE PAN-KRAS INHIBITORS” (Mirati Therapeutics, Inc., priority 2022, published 2025).

Columns and labels:
[1] = biological target: KRas G12C (Homo sapiens, UniProt P01116, G12C); type: binding; settings: single point, 10 nM compound, read-out: Binding to KRas (% inhibition at 10 nM) G12C
[2] = biological target: KRas G12A (Homo sapiens, UniProt P01116, G12A); type: binding; settings: single point, 10 nM compound, read-out: Binding to KRas (% inhibition at 10 nM) G12A
Chain of KRas G12A (P01116 1-169 isoform P01116-2 G12A): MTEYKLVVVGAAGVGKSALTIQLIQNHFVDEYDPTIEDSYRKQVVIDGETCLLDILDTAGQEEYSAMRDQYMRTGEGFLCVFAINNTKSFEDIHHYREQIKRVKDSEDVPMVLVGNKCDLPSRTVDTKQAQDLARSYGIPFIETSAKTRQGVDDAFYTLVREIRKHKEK

[3] = biological target: KRas G12V (Homo sapiens, UniProt P01116, G12V); assay: biochemical; settings: Binding to KRas (IC50 nM) G12V, TR-FRET displacement, KRas G12V
Chain of KRas G12V (P01116 1-169 isoform P01116-2 G12V): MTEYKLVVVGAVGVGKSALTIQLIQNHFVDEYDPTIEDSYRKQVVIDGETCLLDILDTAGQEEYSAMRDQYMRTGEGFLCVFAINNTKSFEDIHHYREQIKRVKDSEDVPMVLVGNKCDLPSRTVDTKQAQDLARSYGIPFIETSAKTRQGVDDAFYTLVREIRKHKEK

[4] = biological target: KRas WT (Homo sapiens, UniProt P01116); assay: KRas binding assay (TR-FRET displacement), KRas WT; settings: single point, 10 nM compound
Chain of KRas WT (P01116 1-169 isoform P01116-2): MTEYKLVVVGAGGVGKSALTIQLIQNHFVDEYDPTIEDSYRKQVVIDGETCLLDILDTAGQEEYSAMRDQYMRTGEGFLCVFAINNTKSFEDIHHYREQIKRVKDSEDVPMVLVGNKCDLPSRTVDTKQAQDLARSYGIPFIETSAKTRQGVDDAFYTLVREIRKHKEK

[5] = test system: PSN1 cells; assay: Inhibition of KRas-mediated phosphorylation of ERK (Cisbio HTRF pERK), PSN1 cells; type: cell-based; settings: Homo sapiens, PSN1, 3 h, 3 hour compound incubation, Cisbio pERK HTRF
Method in brief: (§1)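 Cells were seeded on day 1 at 6,000 per well in RPMI containing 10% FBS before compound treatment and phospho-ERK detection.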

[6] = biological target: KRas G13D (Homo sapiens, UniProt P01116, G13D); type: binding; settings: single point, 10 nM compound, read-out: Binding to KRas (% inhibition at 10 nM) G13D
Chain of KRas G13D (P01116 1-169 isoform P01116-2 G13D): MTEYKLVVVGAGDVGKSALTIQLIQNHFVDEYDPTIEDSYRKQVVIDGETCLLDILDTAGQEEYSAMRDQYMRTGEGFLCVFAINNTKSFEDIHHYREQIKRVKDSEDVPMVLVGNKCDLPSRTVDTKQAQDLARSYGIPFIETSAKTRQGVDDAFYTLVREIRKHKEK

[7] = test system: H358 cells; assay: Inhibition of KRas-mediated phosphorylation of ERK (Cisbio HTRF pERK), H358 cells; type: cell-based; settings: Homo sapiens; for IC50: NCI-H358, 3 h, 3 hr compound incubation, Cisbio pERK HTRF; for inhibition at 0.1 µM: NCI-H358, single point at 100 nM, 3 hrs compound incubation
[8] = biological target: KRas G12S (Homo sapiens, UniProt P01116, G12S); type: binding; settings: single point, 10 nM compound, read-out: Binding to KRas (% inhibition at 10 nM) G12S
Chain of KRas G12S (P01116 1-169 isoform P01116-2 G12S): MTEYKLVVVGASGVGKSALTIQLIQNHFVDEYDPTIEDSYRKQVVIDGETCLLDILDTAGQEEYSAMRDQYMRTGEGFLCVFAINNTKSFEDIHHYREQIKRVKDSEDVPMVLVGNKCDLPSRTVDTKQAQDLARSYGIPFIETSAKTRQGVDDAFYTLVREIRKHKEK

[9] = test system: HCT116 cells; assay: Inhibition of KRas-mediated phosphorylation of ERK (Cisbio HTRF pERK), HCT116 cells; type: cell-based; settings: Homo sapiens; for IC50: HCT-116, 3 h, 3 hr compound incubation, Cisbio pERK HTRF; for inhibition at 0.1 µM: HCT-116, single point at 100 nM, 3 hrs compound incubation
[10] = test system: A549 cells; assay: Inhibition of KRas-mediated phosphorylation of ERK (Cisbio HTRF pERK), A549 cells; type: cell-based; settings: Homo sapiens; for IC50: A549, 3 h, 3 hr compound incubation, Cisbio pERK HTRF; for inhibition at 0.1 µM: single point at 100 nM, 3 hrs compound incubation
[11] = biological target: KRas G12D (Homo sapiens, UniProt P01116, G12D); assay: biochemical; settings: Binding to KRas (IC50 nM) G12D, TR-FRET displacement, KRas G12D
Chain of KRas G12D (P01116 1-169 isoform P01116-2 G12D): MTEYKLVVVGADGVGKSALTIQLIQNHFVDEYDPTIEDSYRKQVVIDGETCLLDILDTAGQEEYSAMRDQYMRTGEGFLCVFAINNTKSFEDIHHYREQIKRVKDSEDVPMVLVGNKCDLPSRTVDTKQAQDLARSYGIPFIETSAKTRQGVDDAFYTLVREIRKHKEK

[12] = test system: H727 cells; assay: Inhibition of KRas-mediated phosphorylation of ERK (Cisbio HTRF pERK), H727 cells; type: cell-based; settings: Homo sapiens; for IC50: NCI-H727, 3 h, 3 hr compound incubation, Cisbio pERK HTRF
[13] = test system: MKN1 cells; assay: Inhibition of KRas-mediated phosphorylation of ERK (Cisbio HTRF pERK), MKN1 cells; type: cell-based; settings: Homo sapiens, MKN-1, 3 hour compound incubation, Cisbio pERK HTRF
Method in brief: as §1

[14] = biological target: KRas G12R (Homo sapiens, UniProt P01116, G12R); assay: biochemical; settings: Binding to KRas (IC50 nM) G12R, TR-FRET displacement, KRas G12R
Chain of KRas G12R (P01116 1-169 isoform P01116-2 G12R): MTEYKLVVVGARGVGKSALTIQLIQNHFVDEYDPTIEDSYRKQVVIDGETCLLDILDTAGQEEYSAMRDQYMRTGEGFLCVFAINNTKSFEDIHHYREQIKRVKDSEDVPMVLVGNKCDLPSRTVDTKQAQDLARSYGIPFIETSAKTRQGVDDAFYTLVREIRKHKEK

[15] = test system: ASPC1 cells; assay: Inhibition of KRas-mediated phosphorylation of ERK (Cisbio HTRF pERK), ASPC1 cells; type: cell-based; settings: Homo sapiens, AsPC-1 cells; for IC50: ASPC1, 3 h, 3 hr compound incubation, Cisbio pERK HTRF
[16] = test system: H460 cells; assay: Inhibition of KRas-mediated phosphorylation of ERK (Cisbio HTRF pERK), H460 cells; type: cell-based; settings: Homo sapiens; for IC50: NCI-H460, 3 h, 3 hr compound incubation, Cisbio pERK HTRF; for inhibition at 0.1 µM: NCI-H460, single point at 100 nM, 3 hrs compound incubation
[17] = biological target: KRas Q61H (Homo sapiens, UniProt P01116, Q61H); assay: KRas binding assay (TR-FRET displacement), KRas Q61H; settings: single point, 10 nM compound
Chain of KRas Q61H (P01116 1-169 isoform P01116-2 Q61H): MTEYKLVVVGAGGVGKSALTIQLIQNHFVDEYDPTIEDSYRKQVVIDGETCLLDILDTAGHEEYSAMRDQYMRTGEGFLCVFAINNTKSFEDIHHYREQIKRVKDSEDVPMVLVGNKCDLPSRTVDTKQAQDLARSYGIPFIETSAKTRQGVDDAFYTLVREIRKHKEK

Chain of KRas G12C (P01116 1-169 isoform P01116-2 G12C): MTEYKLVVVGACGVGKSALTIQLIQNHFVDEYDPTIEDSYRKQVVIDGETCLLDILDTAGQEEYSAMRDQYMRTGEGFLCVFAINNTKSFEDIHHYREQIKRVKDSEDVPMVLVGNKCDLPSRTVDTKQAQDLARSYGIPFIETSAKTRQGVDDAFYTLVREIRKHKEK

SMILES | inhibition at 0.01 µM [1] [%] | inhibition at 0.01 µM [2] [%] | IC50 [3] [nM] | inhibition at 0.01 µM [4] [%] | IC50 [5] [nM] | inhibition at 0.01 µM [6] [%] | IC50 [7] [nM] | inhibition at 0.1 µM [7] [%] | inhibition at 0.01 µM [8] [%] | IC50 [9] [nM] | inhibition at 0.1 µM [9] [%] | IC50 [10] [nM] | inhibition at 0.1 µM [10] [%] | IC50 [11] [nM] | IC50 [12] [nM] | IC50 [13] [nM] | IC50 [14] [nM] | IC50 [15] [nM] | IC50 [16] [nM] | inhibition at 0.01 µM [17] [%] | also measured
CCc1c(F)ccc2cc(O)cc(N3CCc4c(nc(OC[C@@]56CCCN5C[C@H](F)C6)nc4N4CCCn5nc(C(=O)N6C[C@@H](C)N[C@@H](C)C6)cc5C4)C3)c12 [Example 303, ((3 S,5R)-3,5-dimethylpiperazin-1-yl)(5-(7-(8-ethyl-7-fluoro-3-hydroxynaphthalen-1-yl)-2-(((2R,7aS)-2-fluorohexahydro-wH-pyrrolizin-7a-yl)methoxy)-5,6,7,8-tetrahydropyrido[3,4-d]pyrimidin-4-yl)-5,6,7,8-tetrahydro-4H-pyrazolo[1,5-a][1,4]diazepin-2-yl)methanone] | 100 | 98 | < 2 | 97 | 6700 | 98 | 8 | 98 | 99 | 164 | 3 | 35 | 62 | < 2 | 36 | 22.5 | < 2 | 2 | 73 | 98 | inhibition at 0.1 µM [16]: 34%
CCc1c(F)ccc2cc(O)cc(N3CCc4c(nc(OC[C@@]56CCCN5C[C@H](F)C6)nc4N4CCCn5nc(C(=O)N(CC)CC)cc5C4)C3)c12 [Example 390, N,N-diethyl-5-(7-(8-ethyl-7-fluoro-3-hydroxynaphthalen-1-yl)-2-(((2R,7aS)-2-fluorohexahydro-1H-pyrrolizin-7a-yl)methoxy)-5,6,7,8-tetrahydropyrido[3,4-d]pyrimidin-4-yl)-5,6,7,8-tetrahydro-4H-pyrazolo[1,5-a][1,4]diazepine-2-carboxamide] | 99 | 95 | < 2 | 95 | 3850 | 95 | 1 | 98 | 98 | 42 | – | 5 | 79 | < 2 | 3 | 9.6 | < 2 | 1 | 15 | 97 | –
CCc1c(F)ccc2cc(O)cc(N3CCc4c(nc(OC[C@@]56CCCN5C[C@H](F)C6)nc4N4CCCn5nc(C(=O)N6CC7CCC6CC7)cc5C4)C3)c12 [Example 339, 2-azabicyclo[2.2.2]octan-2-yl(5-(7-(8-ethyl-7-fluoro-3-hydroxynaphthalen-1-yl)-2-(((2R,7aS)-2-fluorohexahydro-1H-pyrrolizin-7a-yl)methoxy)-5,6,7,8-tetrahydropyrido[3,4-d]pyrimidin-4-yl)-5,6,7,8-tetrahydro-4H-pyrazolo[1,5-a][1,4]diazepin-2-yl)methanone] | 98 | 92 | < 2 | 93 | 5720 | 92 | 4 | 95 | 97 | 156 | 20 | 17 | 80 | 2 | 6 | 8.4 | < 2 | 6 | 43 | 94 | inhibition at 0.1 µM ([12]; NCI-H727, single point at 100 nM, 3 hrs compound incubation): 74%; inhibition at 0.1 µM ([15]; ASPC1, single point at 100 nM, 3 hrs compound incubation): 97%; inhibition at 0.1 µM [16]: 59%
CCc1c(F)ccc2cc(O)cc(N3CCc4c(nc(OC[C@@]56CCCN5C[C@H](F)C6)nc4N4CCCn5nc(C(=O)NC(C)C)c(Cl)c5C4)C3)c12 [Example 386, 3-chloro-5-(7-(8-ethyl-7-fluoro-3-hydroxynaphthalen-1-yl)-2-(((2R,7aS)-2-fluorotetrahydro-1H-pyrrolizin-7a(5H)-yl)methoxy)-5,6,7,8-tetrahydropyrido[3,4-d]pyrimidin-4-yl)-N-isopropyl-5,6,7,8-tetrahydro-4H-pyrazolo[1,5-a][1,4]diazepine-2-carboxamide] | 99 | 92 | < 2 | 95 | 2710 | 96 | 1 | 91 | 98 | 39 | – | 4 | 88 | < 2 | 2 | 11.3 | < 2 | 1 | 19 | 97 | –
CCc1c(F)ccc2cc(O)cc(N3CCc4c(nc(OC[C@@]56CCCN5C[C@H](F)C6)nc4N4CCCn5nnc(Br)c5C4)C3)c12 [Example 284, 4-(4-(3-bromo-7,8-dihydro-4H-[1,2,3]triazolo[1,5-a][1,4]diazepin-5(6H)-yl)-2-(((2R,7aS)-2-fluorohexahydro-1H-pyrrolizin-7a-yl)methoxy)-5,6-dihydropyrido[3,4-d]pyrimidin-7(8H)-yl)-5-ethyl-6-fluoronaphthalen-2-ol] | 95 | 88 | < 2 | 88 | > 10000 | 90 | 10 | 89 | 96 | 157 | 27 | 22 | 66 | < 2 | 21 | 30.5 | < 2 | 3 | 64 | 89 | inhibition at 0.1 µM [16]: 53%
CCc1c(F)ccc2cc(O)cc(N3CCc4c(nc(OC[C@@]56CCCN5C[C@H](F)C6)nc4N4CCCn5nc(C(=O)N6CC7CC(C6)N7)cc5C4)C3)c12 [Example 283, 3,6-diazabicyclo[3.1.1]heptan-3-yl(5-(7-(8-ethyl-7-fluoro-3-hydroxynaphthalen-1-yl)-2-(((2R,7aS)-2-fluorohexahydro-1H-pyrrolizin-7a-yl)methoxy)-5,6,7,8-tetrahydropyrido[3,4-d]pyrimidin-4-yl)-5 6,7,8-tetrahydro-4Hi-pyrazolo[1,5-a][1,4]diazepin-2-yl)methanone] | 99 | 97 | < 2 | 95 | > 10000 | 98 | – | 48 | 99 | – | -8 | – | 40 | < 2 | 106 | 155 | < 2 | 22 | – | 97 | inhibition at 0.1 µM [16]: 18%
